Test results reported in the NIST ThermoML archive (doi:10.1021/acs.jced.5b00944).

Assay: xn = mol fraction of the nth substance listed
Conditions: for viscosity / speed of sound / mass density: 100 kPa, Liquid; for viscosity: Capillary tube (Ostwald / Ubbelohde) method; for speed of sound: Sing-around technique in a fixed-path interferometer; for mass density: Vibrating tube method; for surface tension liquid-gas: Capillary rise

CCCC[N+]1(C)CCCC1.N#CN=C=[N-] [1-butyl-1-methylpyrrolidinium dicyanamide] + O
Conditions | mass density [kg/m3] | speed of sound [m/s] | surface tension liquid-gas [mN/m] | viscosity [mPa·s]
287.92 K, x2 = 0.0329 | – | – | – | 46.3
287.92 K, x2 = 0.0994 | – | – | – | 44.7
287.94 K, x2 = 0.2615 | – | – | – | 37.1
287.94 K, x2 = 0.4463 | – | – | – | 28.9
287.95 K, x2 = 0.6509 | – | – | – | 19.6
287.95 K, x2 = 0.751 | – | – | – | 14.4
287.97 K, x2 = 0.9 | – | – | – | 5.51
288.15 K, x2 = 0 | 1019.11 | 1834.4 | – | –
288.15 K, x2 = 0.0329 | 1019.02 | 1834.2 | – | –
288.15 K, x2 = 0.0993 | 1018.74 | 1833.5 | – | –
288.15 K, x2 = 0.2615 | 1018.26 | 1832.2 | – | –
288.15 K, x2 = 0.4463 | 1017.61 | 1832.1 | – | –
288.15 K, x2 = 0.6509 | 1016.78 | 1831.3 | – | –
288.15 K, x2 = 0.751 | 1016.44 | 1825 | – | –
288.15 K, x2 = 0.9 | 1012.13 | 1752.9 | – | –
288.3 K, x2 = 0.0329 | – | – | 51.9 | –
288.8 K, x2 = 0.0994 | – | – | 52.4 | –
288.8 K, x2 = 0.751 | – | – | 54.3 | –
288.8 K, x2 = 0.9 | – | – | 54.3 | –
288.9 K, x2 = 0.6509 | – | – | 50.6 | –
289 K, x2 = 0.4463 | – | – | 51.8 | –
289.1 K, x2 = 0.2615 | – | – | 52 | –
297.5 K, x2 = 0.0329 | – | – | 51.4 | –
297.6 K, x2 = 0.9 | – | – | 53.7 | –
297.7 K, x2 = 0.4463 | – | – | 51.5 | –
297.8 K, x2 = 0.0994 | – | – | 52 | –
297.8 K, x2 = 0.751 | – | – | 53.3 | –
297.9 K, x2 = 0.2615 | – | – | 51.6 | –
297.9 K, x2 = 0.6509 | – | – | 50.1 | –
297.93 K, x2 = 0.0329 | – | – | – | 31.9
297.93 K, x2 = 0.4463 | – | – | – | 20
297.94 K, x2 = 0.2615 | – | – | – | 26.1
297.95 K, x2 = 0.0994 | – | – | – | 31.1
297.95 K, x2 = 0.751 | – | – | – | 10
297.96 K, x2 = 0.6509 | – | – | – | 13.4
297.96 K, x2 = 0.9 | – | – | – | 3.93
298.15 K, x2 = 0 | 1013.48 | 1809.6 | – | –
298.15 K, x2 = 0.0329 | 1013.44 | 1809.6 | – | –
298.15 K, x2 = 0.0993 | 1013.07 | 1808.5 | – | –
298.15 K, x2 = 0.2615 | 1012.53 | 1807.6 | – | –
298.15 K, x2 = 0.4463 | 1011.78 | 1808.1 | – | –
298.15 K, x2 = 0.6509 | 1010.69 | 1808.3 | – | –
298.15 K, x2 = 0.751 | 1010.21 | 1803.2 | – | –
298.15 K, x2 = 0.9 | 1006.14 | 1740.1 | – | –
305.2 K, x2 = 0.2615 | – | – | 51 | –
305.5 K, x2 = 0.0994 | – | – | 51.7 | –
305.5 K, x2 = 0.751 | – | – | 52.6 | –
305.6 K, x2 = 0.4463 | – | – | 51 | –
305.6 K, x2 = 0.9 | – | – | 52.9 | –
306 K, x2 = 0.0329 | – | – | 50.8 | –
306 K, x2 = 0.6509 | – | – | 49.8 | –
307.99 K, x2 = 0.4463 | – | – | – | 14.6
308 K, x2 = 0.0329 | – | – | – | 23.1
308.01 K, x2 = 0.0994 | – | – | – | 22.5
308.02 K, x2 = 0.751 | – | – | – | 7.24
308.02 K, x2 = 0.9 | – | – | – | 2.98
308.03 K, x2 = 0.2615 | – | – | – | 19
308.03 K, x2 = 0.6509 | – | – | – | 9.74
308.15 K, x2 = 0 | 1007.82 | 1785.2 | – | –
308.15 K, x2 = 0.0329 | 1007.7 | 1785.2 | – | –
308.15 K, x2 = 0.0993 | 1007.45 | 1784.4 | – | –
308.15 K, x2 = 0.2615 | 1006.85 | 1783.8 | – | –
308.15 K, x2 = 0.4463 | 1005.97 | 1784.8 | – | –
308.15 K, x2 = 0.6509 | 1004.63 | 1785.9 | – | –
308.15 K, x2 = 0.751 | 1003.96 | 1781.8 | – | –
308.15 K, x2 = 0.9 | 999.99 | 1726.6 | – | –
312.9 K, x2 = 0.2615 | – | – | 50.6 | –
313.2 K, x2 = 0.751 | – | – | 52 | –
313.5 K, x2 = 0.4463 | – | – | 50.4 | –
313.8 K, x2 = 0.0994 | – | – | 51.1 | –
313.8 K, x2 = 0.6509 | – | – | 49.3 | –
313.9 K, x2 = 0.0329 | – | – | 50.3 | –
316.2 K, x2 = 0.9 | – | – | 52.2 | –
318.02 K, x2 = 0.0329 | – | – | – | 17.4
318.03 K, x2 = 0.4463 | – | – | – | 11
318.04 K, x2 = 0.751 | – | – | – | 5.47
318.05 K, x2 = 0.2615 | – | – | – | 14.4
318.05 K, x2 = 0.9 | – | – | – | 2.33
318.06 K, x2 = 0.0994 | – | – | – | 16.9
318.06 K, x2 = 0.6509 | – | – | – | 7.37
318.15 K, x2 = 0 | 1002.33 | 1761 | – | –
318.15 K, x2 = 0.0329 | 1002.21 | 1760.7 | – | –
318.15 K, x2 = 0.0993 | 1001.88 | 1760 | – | –
318.15 K, x2 = 0.2615 | 1001.22 | 1759.7 | – | –
318.15 K, x2 = 0.4463 | 1000.21 | 1761.1 | – | –
318.15 K, x2 = 0.6509 | 998.57 | 1762.5 | – | –
318.15 K, x2 = 0.751 | 997.71 | 1759.7 | – | –
318.15 K, x2 = 0.9 | 993.7 | 1711.2 | – | –
323.9 K, x2 = 0.0994 | – | – | 50.3 | –
324.1 K, x2 = 0.2615 | – | – | 49.6 | –
324.2 K, x2 = 0.751 | – | – | 51.1 | –
324.4 K, x2 = 0.9 | – | – | 51.7 | –
324.5 K, x2 = 0.4463 | – | – | 49.6 | –
324.6 K, x2 = 0.6509 | – | – | 48.9 | –
324.9 K, x2 = 0.0329 | – | – | 49.5 | –
333.04 K, x2 = 0.0329 | – | – | – | 12.1
333.07 K, x2 = 0.4463 | – | – | – | 7.72
333.07 K, x2 = 0.751 | – | – | – | 3.81
333.07 K, x2 = 0.9 | – | – | – | 1.68
333.08 K, x2 = 0.2615 | – | – | – | 10.1
333.09 K, x2 = 0.6509 | – | – | – | 5.14
333.1 K, x2 = 0.0994 | – | – | – | 11.7
333.15 K, x2 = 0 | 994.14 | 1724.7 | – | –
333.15 K, x2 = 0.0329 | 993.99 | 1724.4 | – | –
333.15 K, x2 = 0.0993 | 993.64 | 1723.9 | – | –
333.15 K, x2 = 0.2615 | 992.88 | 1724 | – | –
333.15 K, x2 = 0.4463 | 991.65 | 1725.6 | – | –
333.15 K, x2 = 0.6509 | 989.51 | 1727 | – | –
333.15 K, x2 = 0.751 | 988.31 | 1724.7 | – | –
333.15 K, x2 = 0.9 | 983.98 | 1684.9 | – | –
